Measurements reported in patent publication US12129237B2, “Substituted diaminocarboxamide and diaminocarbonitrile pyrimidines, compositions thereof, and methods of treatment therewith” (SIGNAL PHARMACEUTICALS, LLC, priority 2011, dated 2024).

What follows are compounds tested against T1, JNK1 (Homo sapiens, UniProt P45983) (assay: JNK1 biochemical assays (one or more of: time resolved fluorescence, Z'-LYTE Cascade, radioactive)). Details: Table 2; JNK1 IC50 activity level; read-out: Act. Level.
T1 construct: purchased Carna Biosciences
T1 sequence (P45983 whole entry): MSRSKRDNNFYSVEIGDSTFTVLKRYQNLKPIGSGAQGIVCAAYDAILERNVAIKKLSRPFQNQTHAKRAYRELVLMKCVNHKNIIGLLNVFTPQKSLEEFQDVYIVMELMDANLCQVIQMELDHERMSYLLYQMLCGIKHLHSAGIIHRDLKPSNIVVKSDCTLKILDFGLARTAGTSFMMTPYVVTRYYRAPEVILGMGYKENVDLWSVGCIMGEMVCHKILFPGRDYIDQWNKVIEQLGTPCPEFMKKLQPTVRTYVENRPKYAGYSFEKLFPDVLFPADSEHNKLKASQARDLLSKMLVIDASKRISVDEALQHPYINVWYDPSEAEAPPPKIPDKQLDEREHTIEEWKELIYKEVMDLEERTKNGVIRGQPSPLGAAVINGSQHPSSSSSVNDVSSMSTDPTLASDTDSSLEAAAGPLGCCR

IC50 [nM]	Compound
200 to 800	NC(=O)c1cnc(NC2CCN(Cc3ccccc3)CC2)nc1Nc1ccccc1 [Example B-50, 2-(1-benzylpiperidin-4-ylamino)-4-(phenylamino)pyrimidine-5-carboxamide]
< 200	C[C@]1(O)CCC[C@@H](Nc2nc(N[C@H]3CCc4ncccc4C3)ncc2C(N)=O)C1 [Example B-102, 4-((1R,3S)-3-hydroxy-3-methylcyclohexylamino)-2-((S)-5,6,7,8-tetrahydroquinolin-6-ylamino)pyrimidine-5-carboxamide]
< 200	NC(=O)c1cnc(N[C@H]2CCc3cccnc3C2)nc1N[C@@H]1CCC[C@H](O)C1 [Example B-87, 4-((1R,3S)-3-hydroxycyclohexylamino)-2-((S)-5,6,7,8-tetrahydroquinolin-7-ylamino)pyrimidine-5-carboxamide]
< 200	NC(=O)c1cnc(N[C@@H]2CCc3ncccc3C2)nc1N[C@@H]1CCCC[C@H](O)C1 [Example B-98, 4-((1R,3S)-3-hydroxycycloheptylamino)-2-((R)-5,6,7,8-tetrahydroquinolin-6-ylamino)pyrimidine-5-carboxamide]
< 200	Cc1ccccc1Nc1ncc(C(N)=O)c(Nc2ccccc2)n1 [Example B-30, 4-(phenylamino)-2-(o-tolylamino)pyrimidine-5-carboxamide]
< 200	COc1cc(Nc2ncc(C(N)=O)c(Nc3ccccc3)n2)cc(OC)c1OC [Example B-19, 4-(phenylamino)-2-(3,4,5-trimethoxyphenylamino)pyrimidine-5-carboxamide]
< 200	NC(=O)c1cnc(NC2CCCC2)nc1Nc1ccccc1 [Example B-44, 2-(cyclopentylamino)-4-(phenylamino)pyrimidine-5-carboxamide]
< 200	CC(C)Nc1nc(N[C@@H]2CCc3ccccc3C2)ncc1C(N)=O [Example B-83, (R)-4-(isopropylamino)-2-(1,2,3,4-tetrahydronaphthalen-2-ylamino)pyrimidine-5-carboxamide]

Same assay, conditions: Table 3; JNK1 IC50 activity level; read-out: Act. Level

IC50 [nM]	Compound
200 to 800	CN(C)C(=O)[C@H]1CC[C@H](Nc2ncc(C#N)c(N[C@@H]3CCCOC3)n2)CC1 [Example C-54, (1R,4r)-4-(5-cyano-4-((R)-tetrahydro-2H-pyran-3-ylamino)pyrimidin-2-ylamino)-N,N-dimethylcyclohexanecarboxamide]
800 to 1000	CO[C@H]1CC[C@H](Nc2ncc(C#N)c(N[C@H]3CC[C@H](O)CC3)n2)CC1 [Example C-15, 4-((1r,4r)-4-hydroxycyclohexylamino)-2-((1r,4r)-4-methoxycyclohexylamino) pyrimidine-5-carbonitrile]
< 200	N#Cc1cnc(N[C@H]2CC[C@H](O)CC2)nc1N[C@@H]1CCC[C@H](O)C1 [Example C-8, 4-((1R,3S)-3-hydroxycyclohexylamino)-2-((1r,4R)-4-hydroxycyclohexylamino) pyrimidine-5-carbonitrile]
1000 to 10000	N#Cc1cnc(N[C@H]2CC[C@H](O)CC2)nc1NC1CC(F)(F)C1 [Example C-58, 4-(3,3-difluorocyclobutylamino)-2-((1r,4r)-4-hydroxycyclohexylamino) pyrimidine-5-carbonitrile]

Same assay, conditions: one or more of the JNK1 biochemical assays; read-out: Act. Level (JNK1 IC50 activity level)

IC50 [nM]	Compound
< 200	CCO[C@H]1CC[C@H](Nc2ncc(C(N)=O)c(N[C@@H](CC)C3CC3)n2)CC1 [Example 373, 4-((S)-1-cyclopropylpropylamino)-2-((1r,4S)-4-ethoxycyclohexylamino)pyrimidine-5-carboxamide]
< 200	CCCC(C)(C)Nc1nc(N[C@H]2CC[C@H](OC)CC2)ncc1C(N)=O [Example 392, 2-((1r,4r)-4-methoxycyclohexylamino)-4-(2-methylpentan-2-ylamino)pyrimidine-5-carboxamide]
< 200	CC(C)(C)Nc1ncc(C(N)=O)c(N[C@@H]2CCC(C)(C)[C@H](O)C2)n1 [Example 324, 2-(tert-butylamino)-4-((1R,3R)-3-hydroxy-4,4-dimethylcyclohexylamino)pyrimidine-5-carboxamide]
< 200	C[C@@H]1CC[C@@H](Nc2nc(NC3CCC3)ncc2C(N)=O)C[C@H]1O [Example 285, 2-(cyclobutylamino)-4-((1R,3R,4R)-3-hydroxy-4-methylcyclohexylamino)pyrimidine-5-carboxamide]
< 200	C[C@@H]1CC[C@@H](Nc2nc(NC3CCOCC3)ncc2C(N)=O)C[C@H]1O [Example 208, 4-((1R,3R,4R)-3-hydroxy-4-methylcyclohexylamino)-2-(tetrahydro-2H-pyran-4-ylamino)pyrimidine-5-carboxamide]
< 200	C[C@@H]1CC[C@@H](Nc2nc(NCC(C)(C)C)ncc2C(N)=O)C[C@H]1O [Example 367, 4-((1R,3R,4R)-3-hydroxy-4-methylcyclohexylamino)-2-(neopentylamino)pyrimidine-5-carboxamide]
< 200	CC1(C)CCC(Nc2nc(NC34CC(C3)C4)ncc2C(N)=O)CC1O (centres unmarked) [Example 432, 2-(bicyclo[1.1.1]pentan-1-ylamino)-4-(3-hydroxy-4,4-dimethylcyclohexylamino)pyrimidine-5-carboxamide]
< 200	CC1(Nc2ncc(C(N)=O)c(NC3CCC(C)(C)C(O)C3)n2)CC1 (centres unmarked) [Example 431, 4-(3-hydroxy-4,4-dimethylcyclohexylamino)-2-(1-methylcyclopropylamino)pyrimidine-5-carboxamide]
< 200	CCO[C@H]1CC[C@H](Nc2ncc(C(N)=O)c(N[C@@H]3CCC[C@@H]3CO)n2)CC1 [Example 209, 2-((1r,4R)-4-ethoxycyclohexylamino)-4-((1R,2S)-2-(hydroxymethyl)cyclopentylamino)pyrimidine-5-carboxamide]
< 200	CC1(Nc2nc(N[C@H]3CC[C@H](O)CC3)ncc2C(N)=O)CCCCC1 [Example 357, 2-((1r,4r)-4-hydroxycyclohexylamino)-4-(1-methylcyclohexylamino)pyrimidine-5-carboxamide]
< 200	CO[C@H]1CC[C@H](Nc2ncc(C(N)=O)c(NC3(C)CCC3)n2)CC1 [Example 402]
1000 to 10000	CCO[C@H]1CC[C@H](Nc2ncc(C(N)=O)c(N[C@H](C)C3CCC3)n2)CC1 [Example 294, 4-((R)-1-cyclobutylethylamino)-2-((1r,4R)-4-ethoxycyclohexylamino)pyrimidine-5-carboxamide]
< 200	CC12CC(Nc3nc(N[C@H]4CC[C@H](OC5CC5)CC4)ncc3C(N)=O)(C1)C2 [Example 442, 2-((1r,4r)-4-cyclopropoxycyclohexylamino)-4-(3-methylbicyclo[1.1.1]pentan-1-ylamino)pyrimidine-5-carboxamide]
< 200	C[C@@H]1CC[C@@H](Nc2nc(N[C@H]3CC[C@H](OC4CC4)CC3)ncc2C(N)=O)C[C@H]1O [Example 492, 2-((1r,4R)-4-cyclopropoxycyclohexylamino)-4-((1R,3R,4R)-3-hydroxy-4-methylcyclohexylamino)pyrimidine-5-carboxamide]
200 to 800	CC(C)Nc1nc(NC(C)(C)C)ncc1C(N)=O [Example 227, 2-(tert-butylamino)-4-(isopropylamino)pyrimidine-5-carboxamide]
< 200	CC(C)Nc1nc(N[C@@H]2CCC[C@H](O)CC2)ncc1C(N)=O [Example 234, 2-((1R,4S)-4-hydroxycycloheptylamino)-4-(isopropylamino)pyrimidine-5-carboxamide]

Same assay, conditions: tested in one or more of the JNK1 biochemical assays; read-out: Act. Level (JNK1 biochemical assay IC50 activity level)

IC50 [nM]	Compound
200 to 800	CCO[C@H]1C[C@H](Nc2ncc(C(N)=O)c(N[C@H]3CCC[C@@H]3O)n2)C1 [Example A-74, 2-((1r,3S)-3-ethoxycyclobutylamino)-4-((1S,2S)-2-hydroxycyclopentylamino)pyrimidine-5-carboxamide]
1000 to 10000	CN(C)C(=O)[C@H]1CC[C@@H](Nc2nc(NC3CCC3)ncc2C(N)=O)CC1 [Example A-134, 2-(cyclobutylamino)-4-((1s,4s)-4-(dimethylcarbamoyl)cyclohexylamino)pyrimidine-5-carboxamide]
200 to 800	CC(C)CC(=O)N1CCC(Nc2ncc(C(N)=O)c(NC3CCOCC3)n2)CC1 [Example A-110, 2-(1-(3-methylbutanoyl)piperidin-4-ylamino)-4-(tetrahydro-2H-pyran-4-ylamino)pyrimidine-5-carboxamide]
< 200	CO[C@H]1CC[C@H](Nc2ncc(C(N)=O)c(N[C@H]3CCNC(=O)C3)n2)CC1 [Example A-25, 2-((1r,4S)-4-methoxycyclohexylamino)-4-((S)-2-oxopiperidin-4-ylamino)pyrimidine-5-carboxamide]
< 200	NC[C@H]1CC[C@@H](Nc2nc(NC3CCCC3)ncc2C(N)=O)CC1 [Example A-131, 4-((1s,4s)-4-(aminomethyl)cyclohexylamino)-2-(cyclopentylamino)pyrimidine-5-carboxamide]
< 200	CC(C)CC(=O)N1CCC(Nc2ncc(C(N)=O)c(N[C@H]3CC[C@@H](O)C3)n2)CC1 [Example A-87, 4-((1S,3R)-3-hydroxycyclopentylamino)-2-(1-(3-methylbutanoyl)piperidin-4-ylamino)pyrimidine-5-carboxamide]
< 200	CC(C)Nc1nc(N[C@H]2CC[C@H](OC(F)F)CC2)ncc1C(N)=O [Example A-191, 2-((1r,4r)-4-(difluoromethoxy)cyclohexylamino)-4-(isopropylamino)pyrimidine-5-carboxamide]
< 200	CO[C@H]1CC[C@H](Nc2ncc(C(N)=O)c(N[C@H]3CC[C@H](NC(C)=O)CC3)n2)CC1 [Example A-38, 4-((1r,4r)-4-acetamidocyclohexylamino)-2-((1r,4r)-4-methoxycyclohexylamino)pyrimidine-5-carboxamide]
< 200	CO[C@H]1CC[C@H](Nc2ncc(C(N)=O)c(N[C@@H]3CCC[C@H]3O)n2)CC1 [Example A-65, 4-((1R,2R)-2-hydroxycyclopentylamino)-2-((1r,4R)-4-methoxycyclohexylamino)pyrimidine-5-carboxamide]
200 to 800	CC(C)Nc1ncc(C(N)=O)c(N[C@H]2CC[C@@H](C(C)(C)O)CC2)n1 [Example A-140, 4-((1s,4s)-4-(2-hydroxypropan-2-yl)cyclohexylamino)-2-(isopropylamino)pyrimidine-5-carboxamide]
